Experimental data as given in patent US20240150377A1, “MODULATORS OF CYSTIC FIBROSIS TRANSMEMBRANE CONDUCTANCE REGULATOR” (VERTEX PHARMACEUTICALS INCORPORATED, priority 2020, published 2024).
Read-outs that look alike come from different tables or passages of the source.

Target: CFTR (Homo sapiens, UniProt P13569)
Test: Membrane potential dye, Enteroid Assay B
Assay type: cell-based
Settings: for Ent. B Max Activity: chloride transport as % of triple combination control (Enteroid Assay B); for EC50: read-out: Ent. B EC50
Procedure: Base medium (ADF+++) consisted of Advanced DMEM/Ham's F12, 2 mM Glutamax, 10 mM HEPES, […] penicillin/streptomycin.
Intestinal enteroid maintenance medium (IEMM) consisted of ADF+++, 1× B27 supplement, 1× N2 supplement, 1.25 mM N-acetyl cysteine, 10 mM Nicotinamide, 50 ng/mL hEGF, 10 nM Gastrin, 1 μg/mL hR-spondin-1, 100 ng/mL hNoggin, TGF-b type 1 inhibitor A-83-01, 100 μg/mL Primocin, 10 μM P38 MAPK inhibitor SB202190.
Bath 1 Buffer consisted of 1 mM MgCl2, 160 mM NaCl, 4.5 mM KCl, 10 mM HEPES, 10 mM Glucose, 2 mM CaCl2).
Chloride Free Buffer consisted of 1 mM Magnesium Gluconate, 2 mM Calcium Gluconate, 4.5 mM Potassium Gluconate, 160 mM Sodium Gluconate, 10 mM HEPES, 10 mM Glucose.
BathI Dye Solution consisted of Bath 1 Buffer, 0.04% Pluronic F127, 20 μM Methyl Oxonol, 30 μM CaCCinh-A01, 30 μM Chicago Sky Blue.
Chloride Free Dye Solution consisted of Chloride Free Buffer, 0.04% Pluronic F127, 20 μM Methyl Oxonol, 30 μM CaCCinh-A01, 30 μM Chicago Sky Blue.
Chloride Free Dye Stimulation Solution consisted of Chloride Free Dye Solution, 10 μM forskolin, 100 μM IBMX, and 300 nM Compound III.
Human intestinal epithelial enteroid cells were obtained from the Hubrecht Institute for Developmental Biology and Stem Cell Research, Utrecht, The Netherlands and expanded in T-Flasks as previously described (Dekkers J F, Wiegerinck C L, de Jonge H R, Bronsveld I, Janssens H M, de Winter-de Groot K M, Brandsma A M, de Jong N W M, Bijvelds M J C, Scholte B J, Nieuwenhuis E E S, van den Brink S, Clevers H, van der Ent C K, Middendorp S and M Beekman J M. A functional CFTR assay using primary cystic fibrosis intestinal organoids. Nat Med. 2013 July;19(7):939-45.).
3. Enteroid Cell Harvesting and Seeding
Cells were recovered in cell recovery solution, collected by centrifugation at 650 rpm for 5 min at 4° C., resuspended in TrypLE and incubated for 5 min at 37° C. Cells were then collected by centrifugation at 650 rpm for 5 min at 4° C. and resuspended in IEMM containing 10 μM ROCK inhibitor (RI). The cell suspension was passed through a 40 μm cell strainer and resuspended at 1×10^6 cells/mL in IEMM containing 10 μM RI. Cells were seeded at 5000 cells/well into multi-well plates and incubated for overnight at 37° C., 95% humidity and 5% CO2 prior to assay.
5. Membrane Potential Dye, Enteroid Assay B
Enteroid cells were incubated with test compound in IEMM for 18-24 hours at 37° C., 95% humidity and 5% CO2. […] Briefly, cells were washed 5 times in Bath 1 Buffer. Bath 1 Dye Solution was added and the cells were incubated for 25 min at room temperature. Following dye incubation, cells were washed 3 times in Chloride Free Dye Solution. Chloride transport was initiated by addition of Chloride Free Dye Stimulation Solution and the fluorescence signal was read for 15 min. […] Chloride transport was then expressed as a percentage of the chloride transport following treatment with 1 μM (14S)-8-[3-(2-{Dispiro[2.0.2.1]heptan-7-yl}ethoxy)-1H-pyrazol-1-yl]-12,12-dimethyl-2λ^6-thia-3,9,11,18,23-pentaazatetracyclo[17.3.1.111,14.05,10]tetracosa-1(22),5,7,9,19(23),20-hexaene-2,2,4-trione, 3 μM (R)-1-(2,2-difluorobenzo[d][1,3]dioxol-5-yl)-N-(1-(2,3-dihydroxypropyl)-6-fluoro-2-(1-hydroxy-2-methylpropan-2-yl)-1H-indol-5-yl)cyclopropanecarboxamide and 300 nM acute N-[2,4-bis(1,1-dimethylethyl)-5-hydroxyphenyl]-1,4-dihydro-4-oxoquinoline-3-carboxamide triple combination control (% Activity).

[1] = Table 8, human enteroid cells, 18-24 hours, acute 10 μM forskolin and 300 nM ivacaftor
[2] = Table 7, human enteroid cells, 18-24 hours, acute 10 μM forskolin and 300 nM ivacaftor

Chain of CFTR (P13569 with tags, fused parts or gaps DEL508-508): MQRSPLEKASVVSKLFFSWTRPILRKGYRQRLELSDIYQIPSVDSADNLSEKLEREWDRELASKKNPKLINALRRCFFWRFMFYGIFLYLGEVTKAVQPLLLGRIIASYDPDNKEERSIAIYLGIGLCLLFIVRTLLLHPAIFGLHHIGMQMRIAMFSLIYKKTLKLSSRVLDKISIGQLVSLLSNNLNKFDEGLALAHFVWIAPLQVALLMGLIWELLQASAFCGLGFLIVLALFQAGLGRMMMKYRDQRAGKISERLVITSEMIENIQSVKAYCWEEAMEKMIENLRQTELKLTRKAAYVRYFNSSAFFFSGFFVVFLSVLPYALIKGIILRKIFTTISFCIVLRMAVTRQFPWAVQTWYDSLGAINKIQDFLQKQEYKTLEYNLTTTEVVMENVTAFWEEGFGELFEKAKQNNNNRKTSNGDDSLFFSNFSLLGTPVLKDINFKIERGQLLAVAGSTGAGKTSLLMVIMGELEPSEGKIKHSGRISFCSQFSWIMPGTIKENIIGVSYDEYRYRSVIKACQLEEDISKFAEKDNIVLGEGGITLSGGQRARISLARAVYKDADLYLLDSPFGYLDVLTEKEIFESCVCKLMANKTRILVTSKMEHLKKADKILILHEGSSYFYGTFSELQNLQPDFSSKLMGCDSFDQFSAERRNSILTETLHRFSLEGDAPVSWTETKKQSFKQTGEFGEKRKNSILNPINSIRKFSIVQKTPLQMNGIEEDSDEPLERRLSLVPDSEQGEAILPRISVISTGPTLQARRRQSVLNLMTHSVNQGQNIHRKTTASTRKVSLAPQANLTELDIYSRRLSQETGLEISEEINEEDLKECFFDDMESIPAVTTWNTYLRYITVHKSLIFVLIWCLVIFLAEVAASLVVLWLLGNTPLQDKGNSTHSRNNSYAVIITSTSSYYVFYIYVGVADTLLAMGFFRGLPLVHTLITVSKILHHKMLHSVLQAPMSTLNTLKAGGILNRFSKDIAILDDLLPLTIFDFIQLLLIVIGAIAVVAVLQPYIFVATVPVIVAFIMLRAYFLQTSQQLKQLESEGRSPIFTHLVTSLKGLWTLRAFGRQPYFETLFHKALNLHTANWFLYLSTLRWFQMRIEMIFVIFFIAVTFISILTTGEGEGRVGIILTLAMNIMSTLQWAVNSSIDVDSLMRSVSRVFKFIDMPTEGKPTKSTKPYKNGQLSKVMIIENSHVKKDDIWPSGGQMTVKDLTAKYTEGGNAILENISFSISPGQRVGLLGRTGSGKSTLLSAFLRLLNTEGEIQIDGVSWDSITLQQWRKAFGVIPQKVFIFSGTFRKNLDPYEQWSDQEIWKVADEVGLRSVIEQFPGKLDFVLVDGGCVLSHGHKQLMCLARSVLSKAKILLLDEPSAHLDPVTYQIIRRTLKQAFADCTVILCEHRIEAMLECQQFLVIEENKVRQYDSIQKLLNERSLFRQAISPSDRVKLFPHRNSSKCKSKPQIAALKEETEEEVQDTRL

Structure (SMILES) | Ent. B Max Activity (Table 8) | EC50 [1] | further results
CNC(=O)c1ccc(CCN2C(=O)c3cccc(c3)S(=O)(=O)Nc3nc(cc(-c4c(C)cccc4C)n3)OC[C@H]2CC(C)(C)C)cc1 [Compound 395] | ++ (++ is 30-60%) | < 1000 nM | 
Cc1cccc(C)c1-c1cc2nc(n1)NS(=O)(=O)c1cccc(c1)C(=O)N(CCc1ccc(C(N)=O)cc1)[C@H](CC(C)(C)C)CO2 [Compound 396] | ++ (++ is 30-60%) | < 1000 nM | 
CNC(=O)c1ccc(CN2C(=O)c3cccc(c3)S(=O)(=O)Nc3nc(cc(-c4c(C)cccc4C)n3)OC[C@H]2CC(C)(C)C)nc1 [Compound 397] | +++ (+++ is >60%) | < 1000 nM | 
Cc1cccc(C)c1-c1cc2nc(n1)NS(=O)(=O)c1cccc(c1)C(=O)N(Cc1ccc(C(N)=O)cn1)[C@H](CC(C)(C)C)CO2 [Compound 398] | +++ (+++ is >60%) | < 1000 nM | 
Cc1cccc(C)c1-c1cc2nc(n1)NS(=O)(=O)c1cccc(c1)C(=O)N(CC(C)(C)C)[C@H](CC(C)(C)C)CO2 [Compound 399] |  |  | Ent. B Max Activity (%) (Table 9): +++ (+++ is >600%); EC50 (Table 9): < 1000 nM
Cc1cccc(C)c1-c1cc2nc(n1)NS(=O)(=O)c1cccc(c1)C(=O)N(CC(C)(C)C)[C@H](CC(C)C)CO2 [Compound 400] | ++ (++ is 30-60%) | < 1000 nM | 
Cc1cccc(C)c1-c1cc2nc(n1)NS(=O)(=O)c1cccc(c1)C(=O)N(Cc1ccc(NC(=O)OC(C)C)nc1)[C@H](CC(C)(C)C)CO2 [Compound 401] | +++ (+++ is >60%) | < 1000 nM | 
COC(=O)Nc1ccc(CN2C(=O)c3cccc(c3)S(=O)(=O)Nc3nc(cc(-c4c(C)cccc4C)n3)OC[C@H]2CC(C)(C)C)cn1 [Compound 402] | +++ (+++ is >60%) | < 1000 nM | 
COC(=O)N1CCn2ncc(CN3C(=O)c4cccc(c4)S(=O)(=O)Nc4nc(cc(-c5c(C)cccc5C)n4)OC[C@H]3CC(C)(C)C)c2C1 [Compound 403] | +++ (+++ is >60%) | < 1000 nM | 
CC(=O)NCCCN1C(=O)c2cccc(c2)S(=O)(=O)Nc2nc(cc(-c3c(C)cccc3C)n2)OC[C@H]1CC(C)C [Compound 404] | +++ (+++ is >60%) | < 1000 nM | 
CC(=O)N(C)CCN1C(=O)c2cccc(c2)S(=O)(=O)Nc2nc(cc(-c3c(C)cccc3C)n2)OC[C@H]1CC(C)C [Compound 405] | +++ (+++ is >60%) | < 1000 nM | 
CNC(=O)CCCN1C(=O)c2cccc(c2)S(=O)(=O)Nc2nc(cc(-c3c(C)cccc3C)n2)OC[C@H]1CC(C)C [Compound 406] | +++ (+++ is >60%) | 1000 to 3000 nM | 
Cc1cccc(C)c1-c1cc2nc(n1)NS(=O)(=O)c1cccc(c1)C(=O)N(CCCC(N)=O)[C@H](CC(C)C)CO2 [Compound 407] |  |  | Ent. B Max Activity (Table 7): +++ (+++ is >60%); EC50 [2]: 1000 to 3000 nM
Cc1cccc(C)c1-c1cc2nc(n1)NS(=O)(=O)c1cccc(c1)C(=O)N(CCCNC(=O)OC(C)C)[C@H](CC(C)C)CO2 [Compound 408] |  |  | Ent. B Max Activity (Table 7): +++ (+++ is >60%); EC50 [2]: < 1000 nM
COC(=O)NCCCN1C(=O)c2cccc(c2)S(=O)(=O)Nc2nc(cc(-c3c(C)cccc3C)n2)OC[C@H]1CC(C)C [Compound 409] |  |  | Ent. B Max Activity (Table 7): +++ (+++ is >60%); EC50 [2]: < 1000 nM
COC(=O)N(C)CCN1C(=O)c2cccc(c2)S(=O)(=O)Nc2nc(cc(-c3c(C)cccc3C)n2)OC[C@H]1CC(C)C [Compound 410] |  |  | Ent. B Max Activity (Table 7): +++ (+++ is >60%); EC50 [2]: < 1000 nM
Cc1cccc(C)c1-c1cc2nc(n1)NS(=O)(=O)c1cccc(c1)C(=O)N(CCCN(C)C)[C@H](CC(C)C)CO2 [Compound 411] |  |  | Ent. B Max Activity (Table 7): +++ (+++ is >60%); EC50 [2]: < 1000 nM
Cc1cccc(C)c1-c1cc2nc(n1)NS(=O)(=O)c1cccc(c1)C(=O)N(CCN(C)C)[C@H](CC(C)C)CO2 [Compound 412] |  |  | Ent. B Max Activity (Table 7): +++ (+++ is >60%); EC50 [2]: < 1000 nM
COC(=O)Nc1cccc(CN2C(=O)c3cccc(c3)S(=O)(=O)Nc3nc(cc(-c4c(C)cccc4C)n3)OC[C@H]2CC(C)(C)C)c1 [Compound 506] | +++ (+++ is >60%) | < 1000 nM | 
Cc1cccc(C)c1-c1cc2nc(n1)NS(=O)(=O)c1cccc(c1)C(=O)N(Cc1cccc(NC(=O)OC(C)C)c1)[C@H](CC(C)(C)C)CO2 [Compound 507] | +++ (+++ is >60%) | < 1000 nM | 
Cc1cccc(C)c1-c1cc2nc(n1)NS(=O)(=O)c1cccc(c1)C(=O)N(Cc1ccc(NC(=O)OC(C)C)cc1)[C@H](CC(C)(C)C)CO2 [Compound 508] | +++ (+++ is >60%) | < 1000 nM | 
Cc1cccc(C)c1-c1cc2nc(n1)NS(=O)(=O)c1cccc(c1)C(=O)N(Cc1ncccn1)[C@H](CC(C)(C)O)CO2 [Compound 658] | +++ (+++ is >60%) | 1000 to 3000 nM | 
Cc1cccc(C)c1-c1cc2nc(n1)NS(=O)(=O)c1cccc(c1)C(=O)N(Cc1ncccn1)[C@H](CCC(C)(C)O)CO2 [Compound 659] | ++ (++ is 30-60%) | 1000 to 3000 nM | 
Cc1cccc(C)c1-c1cc2nc(n1)NS(=O)(=O)c1cccc(c1)C(=O)N(CCCC(C)(C)O)[C@H](CCC(C)(C)O)CO2 [Compound 660] | + (+ is <30%) |  | 
Cc1cccc(C)c1-c1cc2nc(n1)NS(=O)(=O)c1cccc(c1)C(=O)N(Cc1ccc(C(C)(C)O)cc1)[C@H](CCC(C)(C)O)CO2 [Compound 661] | ++ (++ is 30-60%) | 1000 to 3000 nM | 
Cc1cccc(C)c1-c1cc2nc(n1)NS(=O)(=O)c1cccc(c1)C(=O)N(CCCC(C)(C)O)[C@H](CC(C)(C)O)CO2 [Compound 662] | + (+ is <30%) | 1000 to 3000 nM | 
Cc1cccc(C)c1-c1cc2nc(n1)NS(=O)(=O)c1cccc(c1)C(=O)N(Cc1ccc(C(C)(C)O)cc1)[C@H](CC(C)(C)O)CO2 [Compound 663] | +++ (+++ is >60%) | < 1000 nM | 
Cc1cccc(C)c1-c1cc2nc(n1)NS(=O)(=O)c1cccc(c1)C(=O)N(CC1CC(C)(O)C1)[C@H](CC(C)(C)C)CO2 (stereo partly drawn) [Compound 664] | +++ (+++ is >60%) | < 1000 nM | 
Cc1cccc(C)c1-c1cc2nc(n1)NS(=O)(=O)c1cccc(c1)C(=O)N(CC1CC(C)(O)C1)[C@H](CC(C)(C)C)CO2 (stereo partly drawn) [Compound 665] | +++ (+++ is >60%) | < 1000 nM | 
